In patent US9272027B1 (priority 2014, dated 2016):

Tested on: F. tularensis Schu4
Test: microbe, parasite or virus in culture
Assay type: cell-based
Conditions: Francisella tularensis, SCHU4, 44 h, read-out: IC50 of F. tularensis Schu4 growth inhibition

`O=CN(O)CCCP(=O)(O)O` [fosmidomycin] was tested, and the IC50 was 5 µM.
